Data on two compounds can be found in patent US20110223597A1 (priority 2010, published 2011).

Series [1] relates to UGTs 1A1, 1A3, 1A6, 1A7, 1A8, 1A9, 1A10, 2B4, 2B7, 2B11, 2B15 or 2B17. The series can be described thus: Screening of OLZ glucuronidation activity by homogenates of HEK293 cells over-expressing other wild-type UGTs. It is filed as in vitro ADME, human. As to conditions: up to 250 μg of UGT-over-expressing cell homogenate.
Series [2] concerns UGT1A4 (overall OLZ glucuronidation). In words: in vitro. Particulars: human, pH 7.5.
A further series has as its target T1, UGT1A4 (Homo sapiens, UniProt P22310).
T1 sequence (P22310 29-534): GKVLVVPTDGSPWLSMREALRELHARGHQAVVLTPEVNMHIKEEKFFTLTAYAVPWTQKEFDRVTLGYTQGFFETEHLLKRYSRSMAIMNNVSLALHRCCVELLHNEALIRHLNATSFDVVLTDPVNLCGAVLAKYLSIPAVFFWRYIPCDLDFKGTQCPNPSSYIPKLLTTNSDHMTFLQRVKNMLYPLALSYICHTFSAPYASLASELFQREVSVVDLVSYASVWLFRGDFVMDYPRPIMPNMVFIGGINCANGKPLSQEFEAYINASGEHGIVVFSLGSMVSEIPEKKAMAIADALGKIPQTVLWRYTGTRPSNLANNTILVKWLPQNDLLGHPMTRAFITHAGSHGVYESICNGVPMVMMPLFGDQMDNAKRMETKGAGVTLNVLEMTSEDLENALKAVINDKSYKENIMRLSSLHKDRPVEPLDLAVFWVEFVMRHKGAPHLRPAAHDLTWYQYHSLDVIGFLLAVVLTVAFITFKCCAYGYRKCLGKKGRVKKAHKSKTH
The series can be described thus: in vitro. Particulars: homogenates from UGT1A4-over-expressing cells, pH 7.5, probe OLZ (olanzapine), 25 μM.

As for `Cc1cc2c(s1)Nc1ccccc1N=C2N1CCN(C)CC1` [OLZ, Olanzapine], the “glucuronidation activity against OLZ in UGT screening” value in series [1] is reported as “None of the other UGTs screened”.

In the case of `Nc1nnc(-c2cccc(Cl)c2Cl)c(N)n1` [LTG, lamotrigine], the values for the inhibition at 2 h, 2000 μM (in series [2]; at UGT1A4) were 12 ± 3.4% and 41%, respectively.
